Experimental data: patent US11779015B2, “Pesticide compositions” (FUNDACIÓ CENTRE DE REGULACIÓ GENÒMICA, priority 2017, dated 2023)
Entries after “also recorded” stand apart in the source; their conditions may differ.

Assays:
D. suzukii = assay: Airborne toxicity petri dish assay, adult flies exposed to VOC vapours (FIG. 1A); assay type: in vivo, Drosophila suzukii; settings: for time to 100% dead flies: monitored over 1 hour
Experimental: A selection of compounds according to the invention were tested for airborne toxicity to D. suzukii by exposing a population of adult D. suzukii flies to the vapours of the compound using an experimental set up as shown on FIG. 1A.
In particular, adult flies 2 were exposed to compositions 4 comprising one or more of a selection of VOCs according to the invention or a comparative example, in a petri dish 6. The compositions 4 were loaded onto the lid 6a of the petri dish 6 and the flies were placed into the base 6b of the dish, which was then covered by a sheet of plastic mesh netting 8 to avoid direct contact of the flies 2 with the compositions 4, before replacing the lid 6a.
[…] Four drops of 50 microlitres were dispensed into reinforcement rings (not shown) fixed on the inner surface of the petri dish lid 6a.
The experimental set up used was as described in relation to FIG. 1A.
The data is shown as averages±SEM based on 3 to 6 trials for each condition.

adult D. suzukii flies = assay: Petri dish assay, dose-range 0.3 to 10% vol in paraffin oil, 24 h exposure (FIG. 3E); assay type: in vivo, Drosophila suzukii; settings: for Minimal concentration (%) to induce 100% morbidity/mortality in D. suzukii adults: paraffin oil, 24 h exposure (Example 2); for concentration at which toxicity is displayed (as low as): dose-range 0.3 to 10% vol in paraffin oil, 24 h exposure, adult D. suzukii
From the text: Data are represented as mean proportion of dead flies, with counts separated between male (as indicated by ‘M’) and female (as indicated by ‘F’) flies. […] Data points marked NaN were not tested at the indicated concentration. The MEC column summarises the minimal effective concentration to induce 100% morbidity/mortality to adult D. suzukii flies.

[1] = system: honeybees (Apis mellifera); assay: Airborne toxicity on honeybees in the petri dish assay; assay type: in vivo; settings: paraffin oil, 24 hours
[2] = VOC at 10 M in paraffin oil, vapour exposure, 1 hour
[3] = VOC at 10 M in paraffin oil, vapour exposure

| SMILES | airborne toxicity/lethality in the initial screen with a high dose (words) (D. suzukii; [2]) | also measured |
| --- | --- | --- |
| CCCCCCO [1-hexanol] | showed toxicity | – |
| CCCCCC(C)=O [2-heptanone] | showed toxicity | – |
| CCC=C(C)C=O [2-methyl-2-pentenal] | showed toxicity | – |
| CC1=C(O)C(=O)OC1C (centres unmarked) [4,5-Dimethyl-3-hydroxy-2,5-dihydrofuran-2-one, reference compound] | showed toxicity | – |
| CC=CC(=O)CC [4-hexen-3-one] | showed toxicity | Minimal concentration (%) to induce 100% morbidity/mortality in D. suzukii adults (adult D. suzukii flies): 3%; Percentage of dead honey bee adults (%) ([1]; applied concentration 3%): 0% |
| CC/C=C\CC/C=C/C=O [(E)-2,(Z)-6-nonadienal, trans-2,cis-6-Nonadienal] | showed toxicity | Minimal concentration (%) to induce 100% morbidity/mortality in D. suzukii adults (adult D. suzukii flies): 3%; Percentage of dead honey bee adults (%) ([1]; applied concentration 3%): 10% |
| CCCC/C=C/C=O [(E)-2-heptenal] | showed toxicity | Minimal concentration (%) to induce 100% morbidity/mortality in D. suzukii adults (adult D. suzukii flies): 3%; Percentage of dead honey bee adults (%) ([1]; applied concentration 3%): 0% |
| CC/C=C/C=O [(E)-2-pentenal] | showed toxicity | – |
| CCCC/C=C/C=C/C=O [(E,E)-2,4-nonadienal] | showed toxicity | concentration at which toxicity is displayed (as low as) (adult D. suzukii flies): 2%; Minimal concentration (%) to induce 100% morbidity/mortality in D. suzukii adults (adult D. suzukii flies): 2%; Percentage of dead honey bee adults (%) ([1]; applied concentration 2%): 0%; Percentage of dead honey bee adults (%) ([1]; applied concentration 5%): 0% |
| CCCCCCC/C=C/C=O [E-2-decenal] | – | Percentage of dead honey bee adults (%) ([1]; applied concentration 2%): 0% |
| CCCCCCCCC/C=C/C=O [E-2-dodecenal] | showed toxicity | – |
| CCCCCC/C=C/C=O [E-2-nonenal] | showed toxicity | concentration at which toxicity is displayed (as low as) (adult D. suzukii flies): 2% |
| CCCCC/C=C/C=O [E-2-octenal] | showed toxicity | concentration at which toxicity is displayed (as low as) (adult D. suzukii flies): 2% |
| CCCCCCCCCC/C=C/C=O [E-2-tridecenal] | showed toxicity | time to 100% dead flies (D. suzukii; [3]): an hour |
| CCCCCCCC/C=C/C=O [E-2-undecenal] | showed toxicity | – |
| CC/C=C/CCO [E-3-hexenol] | – | airborne toxicity/lethality in the initial screen with a high dose (words) (D. suzukii; in vivo): showed toxicity |
| CC(=O)c1ccccc1 [acetophenone, Acetophenone] | showed toxicity | – |
| C=CCOC(=O)C1=CCCC1 [allyl 1-cyclopentene-1-carboxylate, Allyl 1-cyclopentene-1-carboxylate] | showed toxicity | concentration at which toxicity is displayed (as low as) (adult D. suzukii flies): 0.3%; Minimal concentration (%) to induce 100% morbidity/mortality in D. suzukii adults (adult D. suzukii flies): 0.5%; Percentage of dead honey bee adults (%) ([1]; applied concentration 1%): 0% |

| SMILES | airborne toxicity/lethality in the initial screen with a high dose (words) (D. suzukii; [2]) | also measured |
| --- | --- | --- |
| O=Cc1ccccc1 [benzaldehyde, Benzaldehyde] | showed toxicity | – |
| O=C(OCc1ccccc1)c1ccccc1 [benzyl benzoate, Benzyl benzoate, reference compound] | did not cause mortality | airborne toxicity/lethality in the initial screen with a high dose (words) (D. suzukii; VOC at 10 M in paraffin oil, vapour exposure, 1 hour, listed as Benzyl benzoate): not toxic |
| O=C(OCc1ccccc1)c1ccccc1O [benzyl salicylate, Benzyl salicylate, reference compound] | did not cause mortality; also recorded: not toxic | – |
| CCCCOC(=O)C1CCCC1 [butyl cyclopentanecarboxylate, Butyl cyclopentanecarboxylate] | showed toxicity | Minimal concentration (%) to induce 100% morbidity/mortality in D. suzukii adults (adult D. suzukii flies): 3%; Percentage of dead honey bee adults (%) ([1]; applied concentration 3%): 0% |
| CCOC(=O)c1ccccc1 [ethyl benzoate, Ethyl benzoate] | showed toxicity | – |
| CCOC(=O)Cc1ccccc1 [ethyl phenyl acetate, Ethyl phenylacetate] | showed toxicity | time to 100% dead flies (D. suzukii; [3]): half an hour |
| CCCCCCC=O [heptanal, Heptanal] | showed toxicity | – |
| CC(C)OC(=O)C1CCCC1 [isopropyl cyclopentanecarboxylate, Isopropyl cyclopentanecarboxylate] | showed toxicity | – |
| C=CC(C)(CCC=C(C)C)OC(=O)c1ccccc1 (centres unmarked) [linalyl benzoate, Linalyl benzoate, reference compound] | did not cause mortality; also recorded: not toxic | – |
| CCC(C)C(=O)OC (centres unmarked) [methyl 2-methylbutyrate, Methyl 2-methyl butyrate] | showed toxicity | – |
| COC(=O)C1CCCCC1 [methyl cyclohexanoate] | showed toxicity | – |
| COC(=O)C1CCCC1 [methyl cyclopentanecarboxylate, Methyl cyclopentanecarboxylate] | showed toxicity | – |
| COC(=O)c1ccccc1O [methyl salicylate] | showed toxicity | – |
| CCCCCCCCC=O [nonanal, Nonanal] | showed toxicity | Minimal concentration (%) to induce 100% morbidity/mortality in D. suzukii adults (adult D. suzukii flies): 3%; Percentage of dead honey bee adults (%) ([1]; applied concentration 3%): 0% |
| CCCCCCCC=O [octanal, Octanal] | showed toxicity | – |
| CCCCC=O [pentanal, Pentanal] | showed toxicity | – |
| CCCCCOC(=O)c1ccccc1 [pentyl benzoate, Pentyl benzoate] | showed toxicity | time to 100% dead flies (D. suzukii; [3]): an hour |
| CCCOC(=O)c1ccccc1 [propyl benzoate, Propyl benzoate] | showed toxicity | – |
